The structures appear in SMILES notation. pIC50: −log10 of the molar value. Bounds are passed on as bounds.

80 compounds from ChEMBL document CHEMBL2150877, “γ-Secretase modulators as potential disease modifying anti-Alzheimer's drugs” (J Med Chem, 2011) can be followed below.

A short description of this assay: Inhibition of gamma secretase assessed as reduction in Abeta42 production.
`COc1cc(C2CC23CCCN(C(C)c2ccc(F)cc2)C3=O)ccc1-n1cnc(C)c1` (stereo not given): the pIC50 (as a rule, −log10 of the IC50, conventionally taken in molar units) was less than 6.70.

For the compound `COc1cc(/C=C/c2nc(-c3ccccc3)c[nH]2)ccc1-n1cnc(C)c1`, the pIC50 is 7.12.

For the compound `COc1cc(C(=O)c2c(OC)cnn(C(C)c3ccccc3)c2=O)ccc1-n1cnc(C)c1` (stereo not given), the pIC50 was 5.60.

With `N#Cc1cc(Nc2nc3n(n2)CCCC3c2ccc(F)cc2)ccc1-n1cnc(Cl)c1` (stereo not given), the pIC50 was 6.96.

With `COc1cc(Nc2nc(C)c(Cc3cccc(Cl)c3)s2)ccc1-n1cnc(C)c1`, the pIC50 is 6.68.

Take `CC(C)CCN1C(c2cc(-c3ccc(C(F)(F)F)cc3)cc(C(CC(C)C)C(=O)O)c2)CCCC1C(F)(F)F` (stereo not given): the negative logarithm of the IC50 (pIC50) is 6.96.

Consider `CC(C)CC(C(=O)O)c1cc(Oc2cc(F)cc(F)c2)cc(-c2ccc(C(F)(F)F)cc2)c1` (stereo not given), for which the pIC50 is 6.11.

Take `COc1cc(/C=C/c2nc(-c3ccccc3)cn2C)ccc1-n1cnc(C)c1`: the pIC50 is 7.74.

In the case of `COc1nc(-c2nc3n(n2)CCC[C@@H]3c2cc(N(CC3CC3)CC3CC3)ccc2Cl)ccc1-n1cnc(C)c1`, the pIC50 was 8.40.

With `Cc1cn(-c2ccc(Nc3ncn(Cc4cccc(Cl)c4)n3)cc2C#N)cn1`, the negative logarithm of the IC50 (pIC50) was 6.66.

Regarding `COc1cc(Nc2nc(C)cc(Oc3ccc(Cl)cc3)n2)ccc1-n1cnc(C)c1`, the negative logarithm of the IC50 (pIC50) is 6.42.

With `COc1cc(/C=C2\CCCN([C@H](c3cc(F)c(F)c(F)c3)[C@@H](C)O)C2=O)ccc1-n1cnc(C)n1`, the pIC50 is 7.22.

Consider `COc1cc(Nc2nc(Cc3ccc(Cl)cc3)c(CO)s2)ccc1-n1cnc(C)c1`, for which the pIC50 is 6.47.

Take `COc1cc(-c2cn(CC(=O)N(CC(F)(F)F)c3ccc(F)c(Cl)c3)nn2)ccc1-n1cnc(C)c1`: the pIC50 is 7.08.

`CC(C)CC(C(=O)O)c1cc(-c2ccc(C(F)(F)F)cc2)cc(N(C)c2cc(F)cc(F)c2)c1` (stereo not given): the pIC50 was 6.35.

For the compound `CSc1ccc(/C=C2/C(C)=C(CC(=O)O)c3cc(F)ccc32)cc1` [SULINDAC SULFIDE], the negative-log IC50 (pIC50) is 4.47.

For `CC(C)c1cc(C(C)C)c(S(=O)(=O)n2c3ccccc3c3ccc(OCC(=O)O)cc32)c(C(C)C)c1`, the pIC50 is 5.12.

Turning to `CC(C)CC(C(=O)O)c1cc(-c2ccc(C(F)(F)F)cc2)cc(C2CCC(C(F)(F)F)N(c3cc(F)cc(C(F)(F)F)c3)C2)c1` (stereo not given), the pIC50 is 6.51.

For `COc1cc(NC(=O)C(C)c2cccc(F)n2)ccc1-c1ccnc(C)c1` (stereo not given), the pIC50 was 6.25.

Consider `COc1cc(NC(=O)NC(C)Cc2ccc(F)cc2)ccc1-c1ccnc(C)c1` (stereo not given), for which the negative-log IC50 (pIC50) is 6.88.

Regarding `CC(C)CC(C(=O)O)c1cc(Cl)c(OCC2CC2)c(-c2ccc(C(F)(F)F)cc2)c1` (stereo not given), the pIC50 was 7.16.

Regarding `COc1cc(C)c(Cc2nc(-c3ccc(-n4cnc(C)c4)c(OC)n3)n[nH]2)cc1C(C)C`, the pIC50 is 7.96.

In the case of `CC(C)CC(C(=O)O)c1cc(C#N)c(OCC2CC2)c(-c2ccc(C(F)(F)F)cc2)c1` (stereo not given), the negative logarithm of the IC50 (pIC50) was 6.56.

Consider `COc1cc(Nc2c(OC)cnn(C(C)c3ccccc3)c2=O)ccc1-n1cnc(C)c1` (stereo not given), for which the pIC50 is 5.51.

Consider `CC(C)CC(C(=O)O)c1cc(Cc2cc(F)cc(F)c2)cc(-c2ccc(C(F)(F)F)cc2)c1` (stereo not given), for which the negative logarithm of the IC50 (pIC50) is 6.13.

On to `CC(C)CCN1CC(c2cc(-c3ccc(C(F)(F)F)cc3)cc(C(CC(C)C)C(=O)O)c2)CCC1C(F)(F)F` (stereo not given), for which the pIC50 was 6.43.

Regarding `COc1cc(NC(=O)Nc2cc(Cl)ccc2C)ccc1-c1ccnc(C)c1`, the negative-log IC50 (pIC50) is 6.17.

With `COc1cc(/C=C2\CCCN(Cc3cccc(F)c3)C2=O)ccc1-n1cnc(C)c1`, the pIC50 was 6.70.

On to `COc1cc(NC(=O)C(C)N2CCc3ccc(Br)cc3C2)ccc1-c1ccnc(C)c1` (stereo not given), for which the pIC50 was 6.74.

Take `CC(C)CC(C(=O)O)c1cc(CCc2cc(F)cc(F)c2)cc(-c2ccc(C(F)(F)F)cc2)c1` (stereo not given): the negative-log IC50 (pIC50) was 6.39.

As to `COc1nc(/C=C/c2nc3n(n2)CCC[C@H]3c2ccccc2C(F)(F)F)ccc1-n1cnc(C)c1` [E-2212], the pIC50 is 7.77.

As for `CC(C)CC(C(=O)O)c1cc(-c2ccc(C(F)(F)F)cc2)cc(C2CCCC(C(F)(F)F)N2Cc2ccc(C(F)(F)F)cc2)c1` (stereo not given), the pIC50 is 6.51.

In the case of `COc1cc(Nc2nc(C)cc(Nc3ccc(Cl)cc3)n2)ccc1-n1cnc(C)c1`, the pIC50 is 7.15.

For the compound `COc1nc(/C=C/c2nc3n(n2)CCC[C@@H]3c2cc(F)c(F)c(F)c2)ccc1-n1cnc(C)c1`, the negative-log IC50 (pIC50) is 7.66.

As for `CC(C)CC(C(=O)O)c1cc(-c2ccc(C(F)(F)F)cc2)cc(N2CCC(C(F)(F)F)CC2)c1` (stereo not given), the pIC50 was 6.36.

As for `COc1cc(Nc2ncc3c(n2)C(c2ccccc2)CCC3)ccc1-c1cnn(C)c1` (stereo not given), the negative-log IC50 (pIC50) is 6.62.

On to `COc1cc(Nc2cccc3c2nc(-c2ccc(F)cc2)n3C(C)C)ccc1-c1ccnc(C)c1`, for which the pIC50 was 7.41.

Regarding `COc1cc(-c2cn(C3CCc4c(F)cccc4N(CC(F)(F)F)C3=O)nn2)ccc1Oc1cccnc1` (stereo not given), the pIC50 was 6.27.

On to `CC(C)CC(C(=O)O)c1cc(-c2ccc(C(F)(F)F)cc2)cc(-c2cc(C(F)(F)F)cc(C(F)(F)F)c2)c1` (racemic), for which the pIC50 is 7.10.

Take `CC(C)CC(C(=O)O)c1cc(/C=C/c2ccc(-c3ccccc3)cc2)cc(-c2ccc(Cl)c(C(F)(F)F)c2)c1` (stereo not given): the negative-log IC50 (pIC50) was 6.82.

Take `COc1cc(/C=C2\OC[C@@H]3CCC[C@H](c4ccc(F)cc4)N3C2=O)ccc1-n1cnc(C)c1`: the pIC50 is 6.70.

Consider `COc1cc(/C=C2\OC(C)(C)CN([C@H](c3cc(F)c(F)c(F)c3)[C@@H](C)O)C2=O)ccc1-n1cnc(C)c1`, for which the negative logarithm of the IC50 (pIC50) was 8.30.

For `CC(C)CC(C(=O)O)c1cc(/C=C/c2cc(F)cc(F)c2)cc(-c2ccc(C(F)(F)F)cc2)c1` (stereo not given), the pIC50 was 6.35.

Consider `CCC[C@H](C(=O)O)c1cc(OCc2ccccc2)cc(-c2ccc(C(F)(F)F)cc2)c1`, for which the negative-log IC50 (pIC50) was 5.60.

Turning to `COc1cc(Nc2nc3c(c(Cc4ccccc4)n2)CN(CCO)CC3)ccc1-n1cnc(C)c1`, the negative logarithm of the IC50 (pIC50) is 7.60.

Turning to `COc1cc(C2CN(C(C)=O)CC3(CCCN(C(C)c4ccc(F)cc4)C3=O)C2)ccc1-n1cnc(C)c1` (stereo not given), the negative logarithm of the IC50 (pIC50) was less than 6.70.

Turning to `COc1cc(/C=C/C(=O)NC2CCc3ccccc3C2)ccc1-n1cnc(C)c1` (stereo not given), the pIC50 is 7.22.

On to `COc1ccc2c(c1)c(CC(=O)O)c(C)n2C(=O)c1ccc(Cl)cc1` [INDOMETHACIN], for which the negative-log IC50 (pIC50) is 4.60.

In the case of `COc1cc(Nc2ccnn(Cc3ccc(F)cc3)c2=O)ccc1-n1cnc(C)c1`, the negative-log IC50 (pIC50) is 6.46.

`COc1nc(/C=C/c2nc3n(n2)CCC[C@@H]3c2ccc(F)cc2)ccc1-n1cnc(C)c1`: the negative-log IC50 (pIC50) is 7.43.

With `COc1cc(-c2cn([C@@H]3CCc4c(C)cc(C)cc4N(CC(F)(F)F)C3=O)nn2)ccc1-n1cnc(C)c1`, the pIC50 is 7.68.

As to `COc1cc(Nc2cccc3c2nc(-c2ccc(F)cc2)n3C)ccc1-n1cnc(C)c1`, the pIC50 was 7.68.

In the case of `CCCC1CCCCN1c1cc(-c2ccc(C(F)(F)F)cc2)cc(C(CC(C)C)C(=O)O)c1` (stereo not given), the negative logarithm of the IC50 (pIC50) was 6.37.

Turning to `COc1cc(Nc2nc3n(n2)CCCC[C@H]3c2ccc(OCC(F)(F)F)cc2)ccc1-n1cnc(Cl)c1`, the pIC50 is 8.30.

Take `COc1cc(/C=C2\CCCn3c(-c4ccc(F)cc4)cnc32)ccc1-n1cnc(C)c1`: the negative-log IC50 (pIC50) was 6.77.

As to `CC(C)CC(C(=O)O)c1cc(-c2ccc(C(F)(F)F)cc2)cc(C2CCCC(C(F)(F)F)N2C)c1` (stereo not given), the pIC50 is 6.38.

With `COc1cc(/C=C/c2nc3n(n2)CCC[C@@H]3c2ccc(F)cc2)ccc1-n1cnc(C)c1`, the negative-log IC50 (pIC50) is 7.85.

As to `COc1nc(-c2nc3n(n2)CCC[C@@H]3c2cc(N(CC3CC3)CC(F)(F)F)ccc2Cl)ccc1-n1cnc(C)c1`, the negative logarithm of the IC50 (pIC50) was 8.22.

Take `COc1cc(/C=C/c2nc3n(n2)CCC[C@@H]3c2cc(F)c(F)c(F)c2)ccc1-n1cnc(C)c1`: the pIC50 is 7.85.

For `CCCCCCCCCCn1c2ccc(Cl)cc2c2ccc(C(C)C(=O)O)cc21` (stereo not given), the pIC50 is 5.54.

As to `CC(C)CC(C(=O)O)c1cc(CCc2ccc(-c3ccccc3)cc2)cc(-c2ccc(Cl)c(C(F)(F)F)c2)c1` (stereo not given), the pIC50 was 6.68.

Regarding `COc1ccccc1NC(=O)Nc1ccc(-c2ccnc(C)c2)c(OC)c1`, the pIC50 is 5.48.

With `COc1cc(-c2cn(C3CCc4c(F)cccc4N(CC(F)(F)F)C3=O)nn2)ccc1C#Cc1ccnc(C)c1` (stereo not given), the pIC50 was 7.08.

For the compound `COc1cc(-c2cn(C3CCc4c(F)cccc4N(CC(F)(F)F)C3=O)nn2)ccc1Nc1cccnc1` (stereo not given), the pIC50 is 6.65.

In the case of `COc1cc(-c2cn(C(F)(F)c3ccc(C(F)(F)F)cc3)nn2)ccc1-n1cnc(C)c1`, the pIC50 was 5.65.

For `COc1cc(/C=C/C(=O)NCc2cccc(-c3ccccc3)c2)ccc1-n1cnc(C)c1`, the negative-log IC50 (pIC50) was 7.15.

`COc1cc(Nc2nc3n(n2)CC[C@@](C)(O)C[C@@H]3c2ccc(F)cc2)ccc1-n1cnc(Cl)c1`: the negative-log IC50 (pIC50) was 8.70.

As to `COc1cc(/C=C/c2nc3n(n2)CCC[C@H]3c2ccccc2C(F)(F)F)ccc1-n1cnc(C)c1`, the pIC50 is 7.96.

As to `COCc1cc(F)ccc1[C@H]1CCCn2nc(/C=C/c3ccc(-n4cnc(C)c4)c(OC)c3)nc21`, the pIC50 was 7.92.

As to `CC(C(=O)O)c1ccc2c(c1)[nH]c1ccc(Cl)cc12` (stereo not given) [CARPROFEN], the pIC50 was 4.12.

For the compound `COc1cc(C(O)c2c(OC)cnn([C@@H](C)c3ccc(F)cc3)c2=O)ccc1-n1cnc(C)c1` (stereo not given in full), the pIC50 is 5.15.

Turning to `CC(C)CC[C@H](c1ccc(C(F)(F)F)cc1)N1CC[C@@H](CC(=O)O)C(F)(F)[C@H]1c1ccc(C(F)(F)F)cc1`, the negative-log IC50 (pIC50) is 6.15.

For `CC(C(=O)O)c1ccc(-c2ccccc2)c(F)c1` (racemic) [FLURBIPROFEN], the pIC50 is 3.52.

`Cc1cn(-c2ccc(Nc3ncc4c(n3)C(c3ccccc3)CCC4)cc2F)cn1` (stereo not given): the pIC50 was 6.89.

As for `COc1cc(Nc2ncc3c(n2)C(c2ccccc2)CCC3)ccc1-n1cnc(C)c1` (stereo not given), the pIC50 was 6.08.

For the compound `COc1cc(Nc2nc3c(s2)CCCC3c2ccccc2)ccc1-n1cnc(C)c1` (stereo not given), the pIC50 was 7.40.

As for `COc1cc(/C=C2\CC[C@H]3CCC[C@@H](c4cc(F)c(F)c(F)c4)N3C2=O)ccc1-n1cnc(C)c1`, the negative-log IC50 (pIC50) was 7.48.

`COc1cc(Nc2nc3n(n2)CCCC[C@@H]3c2ccc(OCC(F)(F)F)cc2)ccc1-n1cnc(Cl)c1`: the negative logarithm of the IC50 (pIC50) is 8.00.

With `COc1cc(/C=C2\OC(C)(C)CN([C@@H](CO)c3ccc(F)cc3)C2=O)ccc1-n1cnc(C)c1`, the pIC50 is 7.80.

In the case of `COCCN(Cc1cccc2ccccc12)C(=O)/C=C/c1ccc(-n2cnc(C)c2)c(OC)c1`, the pIC50 was 7.22.
